From US20230363382A1, “COMBINATIONS OF TRIAZINONE HERBICIDES WITH SAFENERS” (priority 2020, published 2023)
Like-named read-outs stand apart in the source and are kept apart here.

Tests used:
Conditions in all cases: Metribuzin 840 g ai/ha alone, soil spray
Ipomoea hederacea = assay: % weed control in Soybean crop; format: in vivo
Protocol: (§1) Experiments were carried out to evaluate the phytotoxicity, effect on plant height and effect on number of plants standing after treatments with combinations of one or more triazinone herbicides with one or more safeners.
(§2) Application method was spray and applications were made to soil.

Soybean plants = assay: effect on number of standing Soybean plants; format: in vivo
Protocol: as §1, §2

Soybean crop [1] = assay: effect on plant height of Soybean crop; format: in vivo
Protocol: as §1, §2

Soybean crop [2] = system: Soybean crop
Protocol: as §1, §2

CSc1nnc(C(C)(C)C)c(=O)n1N [Metribuzin, 4-amino-6-tert-butyl-4,5-dihydro-3-methylthio-1,2,4-triazin-5-one]
% Weed Control 7 DAA (Ipomoea hederacea; Table 1 treatment set): 60.0% | % Weed Control 7 DAA (Ipomoea hederacea; Table 2 treatment set): 72.5% | % Weed Control 14 DAA (Ipomoea hederacea; Table 1 treatment set): 92.5% | % Weed Control 14 DAA (Ipomoea hederacea; Table 2 treatment set): 96.3% | % Weed Control 21 DAA (Ipomoea hederacea; Table 1 treatment set): 98.8% | % Weed Control 21 DAA (Ipomoea hederacea; Table 2 treatment set): 96.8% | % Weed Control 28 DAA (Ipomoea hederacea; Table 1 treatment set): 95.0% | % Weed Control 28 DAA (Ipomoea hederacea; Table 2 treatment set): 98.8% | % Weed Control 35 DAA (Ipomoea hederacea; Table 1 treatment set): 96.3% | % Weed Control 35 DAA (Ipomoea hederacea; Table 2 treatment set): 98.8% | Number of plants standing 28 DAA (Soybean plants; Table 1 treatment set): 3.0 | Number of plants standing 28 DAA (Soybean plants; Table 2 treatment set): 3.8 | Plant height 28 DAA (Soybean crop [1]; Table 1 treatment set): 5.80 | Plant height 28 DAA (Soybean crop [1]; Table 2 treatment set): 7.05 | % Phytotoxicity 7 DAA (Soybean crop [2]; Table 1 treatment set): 6.3% | % Phytotoxicity 7 DAA (Soybean crop [2]; Table 2 treatment set): 7.5% | % Phytotoxicity 21 DAA (Soybean crop [2]; Table 1 treatment set): 65.0% | % Phytotoxicity 21 DAA (Soybean crop [2]; Table 2 treatment set): 62.5% | % Phytotoxicity 35 DAA (Soybean crop [2]; 35 DAA, Table 1 treatment set): 81.3%
